# Patent US6989148B2, “Treatment of diabetes” (priority 1994, dated 2006)
# “Also recorded” adds a separate entry of the source.
# Experiments:
# [1] = test system: subjects with remission phase Type I diabetes; test: Sustacal meal with infusion of 0.75 pm/kg/min GLIP versus saline (Example 3); assay type: in vivo, human; conditions: 0.75 pmol/kg/min GLIP along with Sustacal meal, versus saline control; FIG. 3
# Experimental: The test was conducted as described in Example 1 and blood glucose and C-peptide levels were measured. On a further test day, the subjects were studied during saline infusion after a similar Sustacal meal.
# Type 1 diabetic subject = test: GLIP along with insulin before Sustacal meal, post-prandial glycaemia (Example 6); assay type: in vivo, human; conditions: 50 μg GLIP with 5 units insulin (half the usual dose) subcutaneously before meal; one subject; FIG. 6 Panel A
# Experimental: One Type 1 diabetic subject was given GLIP along with insulin and the effects on post-prandial glycaemia observed. The subject received 5 units of insulin and 50 μg GLIP as subcutaneous injections immediately prior to ingestion of a Sustacal meal as described in Example 1. Blood levels of GLIP were monitored by a standard radioimmunoassay method.
# humans and other mammals = conditions: Wettergren et al. (1993); cited from earlier work
# Type I diabetic subjects = test: Sustacal meal preceded by subcutaneous GLIP injection in Type I diabetics (Example 5); assay type: in vivo, human; conditions: 100 μg GLIP subcutaneously prior to test meal
# From the text: 7 Type I diabetic subjects were studied.
# The results are shown in FIG. 5. *indicates statistically significant differences between treatments (p<0.05)
# [2] = test system: subjects with remission phase Type I diabetes; test: Sustacal meal with intravenous GLIP infusion 1.2 pm/kg/min (Example 1); assay type: in vivo, human
# Experimental: 7 subjects with remission phase Type I diabetes were studied after ingestion of a standardised meal of Sustacal (Upjohn) (delivering […]). Subjects continued their normal insulin treatment programme on the day prior to the test and, on the day of the test, omitted their morning insulin injection and arrived fasting at 8:00 am. […] Infusion was continued for 120 minutes. Blood levels of glucose, C-peptide, gastrin, glucagon and HPP were monitored by standard radioimmunoassay methods in samples taken before and at intervals during the study, up to 180 minutes. On another test day, subjects were given the Sustacal meal alone and the same analytes were similarly monitored.
# [3] = test system: subjects with remission phase Type I diabetes; test: Intravenous glucose infusion with intravenous GLIP (Example 2); assay type: in vivo, human; conditions: IV GLIP 1.2 pm/kg/min for 60 min along with IV glucose 20 g over 60 min; FIG. 2
# Experimental: Four subjects with remission phase Type I diabetes were studied during intravenous glucose infusion. Subjects prepared for the tests as described in Example 1, but received an intravenous infusion of glucose (20 g over 60 min. constant rate)instead of the Sustacal meal. […] Blood levels of glucose and C-peptide were monitored as in Example 1.
# Type II diabetics = conditions: Gutniak et al. (1992), WO93/18786; cited from earlier work
# normal volunteers = test: Sustacal meal preceded by subcutaneous GLIP injection in normal volunteers (Example 4); assay type: in vivo, human; conditions: subcutaneous GLIP (100 μg; b67 prints 1.00 μg) before Sustacal meal
# From the text: Results are shown in FIG. 4. *indicates statistically significant differences between treatments (p<0.05).
# [4] = IV infusion 1.2 pm/kg/min after Sustacal meal
substance,measurement,setting,value
Glucagon-like peptide 1(7-36)amide [GLIP],increase in blood glucose,[1],increase in glucose was less than in the control experiment
same,rise in C-peptide,[1],rise in C-peptide was similar to the control experiment
same,blood glucose after Sustacal meal (maximum),Type 1 diabetic subject,≤ 8 mM
same,gastric emptying,humans and other mammals,delay of gastric emptying
same,blood glucose levels compared to control,"Type I diabetic subjects; no morning insulin, FIG. 5 Panel A",lowering of blood glucose levels
same,pancreatic polypeptide (HPP) levels,Type I diabetic subjects; FIG. 5 Panel D,delayed rise in pancreatic polypeptide (HPP) levels
same,insulin secretion over control levels,Type I diabetic subjects; FIG. 5 Panels B and C,no enhancement of insulin secretion over control levels
same,blood levels of C-peptide,[2]; [4],prevented a significant increase in blood levels of C-peptide
same,plasma glucagon levels stimulated by the meal,[2]; [4],prevented the mean rise in plasma glucagon levels
same,secretion of pancreatic polypeptide (PP) after meal,"[2]; IV infusion 1.2 pm/kg/min after Sustacal meal, FIG. 1 Panel C",this response was absent during GLIP infusion
same,gastrin levels / gastrin response,"[2]; IV infusion 1.2 pm/kg/min after Sustacal meal, FIG. 1 Panel E",normal gastrin response; also recorded: not significantly affected
same,blood glucose level after a meal,"[2]; IV infusion 1.2 pm/kg/min for 120 min after Sustacal meal, FIG. 1 Panel A",excellent control of blood glucose level
same,blood glucose level,[3],improved control of blood glucose level
same,secretion of endogenous insulin,[3],stimulated secretion of endogenous insulin
same,effect of combination with oral hypoglycaemic agents,Type II diabetics,synergistic effect
same,increase in blood levels of C-peptide,normal volunteers,delay in increase
same,increase in blood levels of HPP,normal volunteers,delay in increase
same,increase in blood levels of glucose,normal volunteers,delay in increase
same,increase in blood levels of insulin,normal volunteers,delay in increase
